The source of these data is patent US10233184B2, “7-substituted sulfonimidoylpurinone compounds and derivatives for the treatment and prophylaxis of virus infection” (Hoffmann-La Roche Inc., priority 2016, dated 2019).

Molecules are shown by their SMILES. Converted amounts (≈) assume the structure as drawn. Like-named read-outs stand apart in the source and are kept apart here.

One series concerns the target T1, human TLR7 (Homo sapiens, UniProt Q9NYK1).
T1 sequence (Q9NYK1 27-1049): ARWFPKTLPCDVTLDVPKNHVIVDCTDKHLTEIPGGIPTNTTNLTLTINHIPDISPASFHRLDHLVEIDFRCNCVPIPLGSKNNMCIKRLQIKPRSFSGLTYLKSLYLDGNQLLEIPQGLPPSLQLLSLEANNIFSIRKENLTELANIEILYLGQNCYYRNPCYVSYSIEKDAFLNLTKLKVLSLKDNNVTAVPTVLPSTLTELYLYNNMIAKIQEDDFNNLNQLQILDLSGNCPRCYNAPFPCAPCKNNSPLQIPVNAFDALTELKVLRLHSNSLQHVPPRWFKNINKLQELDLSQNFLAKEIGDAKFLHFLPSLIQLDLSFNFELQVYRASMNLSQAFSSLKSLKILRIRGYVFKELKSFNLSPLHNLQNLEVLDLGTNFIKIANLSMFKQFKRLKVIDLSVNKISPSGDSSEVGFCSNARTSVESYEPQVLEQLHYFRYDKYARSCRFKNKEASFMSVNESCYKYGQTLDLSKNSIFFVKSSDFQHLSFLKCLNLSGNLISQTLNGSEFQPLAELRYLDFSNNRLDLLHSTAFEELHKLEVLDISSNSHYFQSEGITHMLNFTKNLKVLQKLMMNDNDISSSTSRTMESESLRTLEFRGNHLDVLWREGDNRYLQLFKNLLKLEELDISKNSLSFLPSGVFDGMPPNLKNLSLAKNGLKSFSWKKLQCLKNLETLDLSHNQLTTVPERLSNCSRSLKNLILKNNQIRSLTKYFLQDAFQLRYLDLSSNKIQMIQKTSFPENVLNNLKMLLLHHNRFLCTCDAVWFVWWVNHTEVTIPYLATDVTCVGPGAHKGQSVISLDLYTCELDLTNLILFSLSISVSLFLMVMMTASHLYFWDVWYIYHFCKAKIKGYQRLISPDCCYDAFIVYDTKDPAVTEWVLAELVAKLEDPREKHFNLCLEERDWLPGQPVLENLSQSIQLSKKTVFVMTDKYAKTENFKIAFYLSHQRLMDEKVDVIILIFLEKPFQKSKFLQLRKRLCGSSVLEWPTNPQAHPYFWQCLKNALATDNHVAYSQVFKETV
The experiment in a line: HEK293-Blue-hTLR-7 cells assay (SEAP reporter). The following applies: for Ratio (EC50(prodrug)/EC50(active form)): EC50 of prodrug over EC50 of corresponding active form; for EC50: HEK293-Blue-hTLR-7 cells, SEAP reporter, 20 hrs. The series is classed as cell-based. The source says: HEK293-Blue-hTLR-7 Cells Assay:
A stable HEK293-Blue-hTLR-7 cell line was purchased from InvivoGen (Cat.#: hkb-htlr7, San Diego, Calif., USA). These cells were designed for studying the stimulation of human TLR7 by monitoring the activation of NF-κB. A SEAP (secreted embryonic alkaline phosphatase) reporter gene was placed under the control of the IFN-β minimal promoter fused to five NF-κB and AP-1-binding sites. The SEAP was induced by activating NF-κB and AP-1 via stimulating HEK-Blue hTLR7 cells with TLR7 ligands. Therefore the reporter expression was regulated by the NF-κB promoter upon stimulation of human TLR7 for 20 hrs. The cell culture supernatant SEAP reporter activity was determined using QUANTI-Blue™ kit (Cat.#: rep-qbl, Invivogen, San Diego, Calif., USA) at a wavelength of 640 nm, a detection medium that turns purple or blue in the presence of alkaline phosphatase.
HEK293-Blue-hTLR7 cells were incubated at a density of 250,000˜450,000 cells/mL in a volume of 180 μL in a 96-well plate in Dulbecco's Modified Eagle's medium (DMEM) containing 4.5 g/L glucose, 50 U/mL penicillin, […], […], 2 mM L-glutamine, 10% (V/V) heat-inactivated fetal bovine serum for 24 hrs. Then the HEK293-Blue-hTLR-7 cells were incubated with addition of 20 μL test compound in a serial dilution in the presence of final DMSO at 1% and perform incubation under 37° C. in a CO2 incubator for 20 hrs. Then 20 μL of the supernatant from each well was incubated with 180 μL Quanti-blue substrate solution at 37° C. for 2 hrs and the absorbance was read at 620˜655 nm using a spectrophotometer. The signalling pathway that TLR7 activation leads to downstream NF-κB activation has been widely accepted, and therefore similar reporter assay was also widely used for evaluating TLR7 agonist (Tsuneyasu Kaisho and Takashi Tanaka, Trends in Immunology, Volume 29, Issue 7, July 2008, […]; Hiroaki Hemmi et al, Nature Immunology 3, 196-200 (2002)).
The Compounds and Examples of the present invention were tested in HEK293-hTLR-7 assay for their TLR7 agonism activity as described herein and results are listed in Table 1. […] The calculated ratio of EC50(prodrug)/EC50(active form) were within the range from 32 to about 7600.

A further series can be described thus: LYSA solubility study. The settings on record: for solubility thermodynamic: phosphate buffer, pH 6.5, aqueous buffer, thermodynamic from solid; for LYSA of Prodrugs: aqueous solubility, 0.05M phosphate buffer pH 6.5. It counts as physicochemical. As to the method:
LYSA study is used to determine the aqueous solubility of tested compounds. Samples were prepared in duplicate from 10 mM DMSO stock solution. After evaporation of DMSO with a centrifugal vacuum evaporator, the compounds were dissolved in 0.05M phosphate buffer (pH 6.5), stirred for one hour and shaken for two hours. After one night, the solutions were filtered using a microtiter filter plate. Then the filtrate and its 1/10 dilution were analyzed by HPLC-UV. […] The results were in μg/mL. In case the percentage of sample measured in solution after evaporation divided by the calculated maximum of sample amount was bigger than 80%, the solubility was reported as bigger than this value.

Setting [1] is: prodrug, read-out: HEK293-hTLR-7 EC50 (Prodrug).
The mark [2] stands for this setting: 0.05M phosphate buffer pH 6.5, read-out: LYSA of Prodrugs.

What is called EC50 is the midpoint of the concentration-response curve. Take `CCCN(C)C(=O)n1c(=O)n(Cc2ccccc2)c2nc(S(=N)(=O)CCC)nc(N)c21` (centres unmarked) [Example 1, 6-Amino-9-benzyl-N-methyl-8-oxo-N-propyl-2-(propylsulfonimidoyl)purine-7-carboxamide]: the “Ratio (EC50(prodrug)/EC50(active form))” value at human TLR7 was found to be 775.4. Besides, on human TLR7 (setting [1]), the EC50 was 50.4 µM. Also, the solubility thermodynamic in the series “LYSA solubility study” (setting [2]) is 290 µg/mL (≈ 651 µM).

Regarding `CC[S@](=N)(=O)c1nc(N)c2[nH]c(=O)n(Cc3ccc(C)cc3)c2n1` (single isomer, unassigned) [Compound 43e-B], the concentration for a half-maximal effect (EC50) on human TLR7 (active form, read-out: HEK293-hTLR-7 EC50 (Active form)) turned out to be 0.035 µM. Further, the solubility thermodynamic in “LYSA solubility study” (0.05M phosphate buffer pH 6.5, read-out: LYSA of Active Forms) turned out to be 13 µg/mL (≈ 37.5 µM).

As for `CCCCN(C)C(=O)OCCN(C)C(=O)n1c(=O)n(Cc2ccccc2)c2nc(S(=N)(=O)CCC)nc(N)c21` (centres unmarked) [Example 29, 2-[[6-Amino-9-benzyl-8-oxo-2-(propylsulfonimidoyl)purine-7-carbonyl]-methyl-amino]ethyl N-butyl-N-methyl-carbamate], at human TLR7, the “Ratio (EC50(prodrug)/EC50(active form))” value was 750.8. Moreover, the concentration for a half-maximal effect (EC50) at human TLR7 (setting [1]) came to 48.8 µM. For the same compound, the solubility thermodynamic in “LYSA solubility study” (setting [2]) was 395 µg/mL (≈ 705 µM).

Take `CCCN(C)C(=O)n1c(=O)n(Cc2ccc(Br)cc2)c2nc([S@@](=N)(=O)CC)nc(N)c21` (single isomer, unassigned) [Example 47-B]: on human TLR7 (setting [1]), the EC50 was found to be 13.1 µM. Also, the solubility thermodynamic in the series “LYSA solubility study” (setting [2]) is 128 µg/mL (≈ 251 µM).

For `CCCS(=N)(=O)c1nc(N)c2c(n1)n(Cc1ccccc1)c(=O)n2C(=O)N(C)CC(=O)OCC` (centres unmarked) [Example 14, Ethyl 2-[[6-amino-9-benzyl-8-oxo-2-(propylsulfonimidoyl)purine-7-carbonyl]-methyl-amino]acetate], on human TLR7, the “Ratio (EC50(prodrug)/EC50(active form))” value was found to be 36.9. The EC50 on human TLR7 (setting [1]) amounted to 2.4 µM. The solubility thermodynamic in “LYSA solubility study” (setting [2]) was 225 µg/mL (≈ 460 µM).

As for `CCN(C)C(=O)n1c(=O)n(Cc2ccc(F)cc2)c2nc(S(=N)(=O)CC)nc(N)c21` (single isomer, unassigned) [Example 46-A], the EC50 on human TLR7 (setting [1]) came out at 45.5 µM. In addition, the “LYSA of Prodrugs” value in the series “LYSA solubility study” turned out to be 205 µg/mL.

In the case of `CCN(C)C(=O)n1c(=O)n(Cc2ccc(Br)cc2)c2nc(S(=N)(=O)CC)nc(N)c21` (single isomer, unassigned) [Example 48-B], the half-maximal effective concentration (EC50) on human TLR7 (setting [1]) was 20.8 µM. Further, in “LYSA solubility study”, the “LYSA of Prodrugs” value came out at 275 µg/mL.

Take `CCCS(=N)(=O)c1nc(N)c2c(n1)n(Cc1ccccc1)c(=O)n2C(=O)N(C)CCN(C)C(=O)OC` (centres unmarked) [Example 26, Methyl N-[2-[[6-amino-9-benzyl-8-oxo-2-(propylsulfonimidoyl)purine-7-carbonyl]-methyl-amino]ethyl]-N-methyl-carbamate]: the “Ratio (EC50(prodrug)/EC50(active form))” value on human TLR7 was determined as 206.2. Also, the EC50 at human TLR7 (setting [1]) is 13.4 µM. Moreover, the solubility thermodynamic in the series “LYSA solubility study” (setting [2]) is greater than 690 µg/mL.

As to `CCCS(=N)(=O)c1nc(N)c2c(n1)n(Cc1ccccc1)c(=O)n2C(=O)N1CCC1` (centres unmarked) [Example 9, 6-Amino-7-(azetidine-1-carbonyl)-9-benzyl-2-(propylsulfonimidoyl)purin-8-one], the “Ratio (EC50(prodrug)/EC50(active form))” value on human TLR7 was determined as 295.4. Besides, the EC50 on human TLR7 (setting [1]) came out at 19.2 µM. The solubility thermodynamic in the series “LYSA solubility study” (setting [2]) was greater than 520 µg/mL.

On to `CCCN(C)C(=O)n1c(=O)n(Cc2ccc(C)cc2)c2nc([S@@](=N)(=O)CCC)nc(N)c21` [Example 36-A, 6-Amino-N-methyl-8-oxo-N-propyl-2[S(S)-propylsulfonimidoyl]-9-(p-tolylmethyl)purine-7-carboxamide], for which the “Ratio (EC50(prodrug)/EC50(active form))” value on human TLR7 is 1673.7. Also, the EC50 on human TLR7 (setting [1]) is 31.8 µM. In addition, the solubility thermodynamic in the series “LYSA solubility study” (setting [2]) came to 168 µg/mL (≈ 366 µM).

Take `CCCCN(CC)C(=O)n1c(=O)n(Cc2ccccc2)c2nc(S(=N)(=O)CCC)nc(N)c21` (centres unmarked) [Example 6, 6-Amino-9-benzyl-N-butyl-N-ethyl-8-oxo-2-(propylsulfonimidoyl)purine-7-carboxamide]: on human TLR7, the “Ratio (EC50(prodrug)/EC50(active form))” value was 1266.2. Also, the EC50 at human TLR7 (setting [1]) was 82.3 µM. Moreover, the solubility thermodynamic in the series “LYSA solubility study” (setting [2]) is 140 µg/mL (≈ 296 µM).

On to `CCCS(=N)(=O)c1nc(N)c2c(n1)n(Cc1ccccc1)c(=O)n2C(=O)N(C)C(C)C` (centres unmarked) [Example 10, 6-Amino-9-benzyl-N-isopropyl-N-methyl-8-oxo-2-(propylsulfonimidoyl)purine-7-carboxamide], for which, at human TLR7, the “Ratio (EC50(prodrug)/EC50(active form))” value was 1053.8. In addition, on human TLR7 (setting [1]), the 50% effective concentration (EC50) was determined as 68.5 µM. Also, the solubility thermodynamic in “LYSA solubility study” (setting [2]) amounted to 120 µg/mL (≈ 269 µM).

As to `CCCS(=N)(=O)c1nc(N)c2c(n1)n(Cc1ccccc1)c(=O)n2C(=O)N(C)CC(C)C` (centres unmarked) [Example 13, 6-Amino-9-benzyl-N-isobutyl-N-methyl-8-oxo-2-(propylsulfonimidoyl)purine-7-carboxamide], on human TLR7, the “Ratio (EC50(prodrug)/EC50(active form))” value is listed as 1030.8. On human TLR7 (setting [1]), the concentration for a half-maximal effect (EC50) worked out at 67 µM. The solubility thermodynamic in “LYSA solubility study” (setting [2]) turned out to be 155 µg/mL (≈ 337 µM).

In the case of `CCCN(CCOC)C(=O)n1c(=O)n(Cc2ccccc2)c2nc(S(=N)(=O)CCC)nc(N)c21` (centres unmarked) [Example 7, 6-Amino-9-benzyl-N-(2-methoxyethyl)-8-oxo-N-propyl-2-(propylsulfonimidoyl)purine-7-carboxamide], the “Ratio (EC50(prodrug)/EC50(active form))” value at human TLR7 was 306.2. Further, the 50% effective concentration (EC50) on human TLR7 (setting [1]) was 19.9 µM. Besides, the solubility thermodynamic in “LYSA solubility study” (setting [2]) stood at 615 µg/mL (≈ 1260 µM).

As for `CCCS(=N)(=O)c1nc(N)c2c(n1)n(Cc1ccccc1)c(=O)n2C(=O)N1CCN(C)CC1` (centres unmarked) [Example 11, 6-Amino-9-benzyl-7-(4-methylpiperazine-1-carbonyl)-2-(propylsulfonimidoyl)purin-8-one], the “Ratio (EC50(prodrug)/EC50(active form))” value on human TLR7 was determined as 86.2. Moreover, on human TLR7 (setting [1]), the EC50 was determined as 5.6 µM. In addition, the solubility thermodynamic in “LYSA solubility study” (setting [2]) was greater than 618 µg/mL.

As to `CCCN(C)C(=O)n1c(=O)n(Cc2ccc(C)cc2)c2nc([S@@](=N)(=O)CC)nc(N)c21` (single isomer, unassigned) [Example 43-B], at human TLR7, the “Ratio (EC50(prodrug)/EC50(active form))” value is given as 2240. For the same compound, the EC50 on human TLR7 (setting [1]) was determined as 78.4 µM. Moreover, in “LYSA solubility study” (setting [2]), the solubility thermodynamic amounted to 170 µg/mL (≈ 382 µM).

Consider `CCCS(=N)(=O)c1nc(N)c2c(n1)n(Cc1ccccc1)c(=O)n2C(=O)N(C)CCOC` (centres unmarked) [Example 2, 6-Amino-9-benzyl-N-(2-methoxyethyl)-N-methyl-8-oxo-2-(propylsulfonimidoyl)purine-7-carboxamide], for which, at human TLR7, the “Ratio (EC50(prodrug)/EC50(active form))” value worked out at 372.1. Moreover, the EC50 on human TLR7 (setting [1]) amounted to 32 µM. In addition, in “LYSA solubility study” (setting [2]), the solubility thermodynamic worked out at 615 µg/mL (≈ 1330 µM).
